One assay relates to Platelet aggregation. In words: Platelet aggregation inhibiting activity in vitro (ADP-induced, rabbit platelet-rich plasma). To be noted: Oryctolagus cuniculus, rabbit PRP, ADP 10 μM, 37° C., minimum concentration at which inhibition exceeds 50%, read-out: Platelet aggregation inhibitory activity (IC50). Format: cell-based, rabbits (Japanese native white male). The protocol: The platelet aggregation inhibiting activity in vitro of each of the text compounds was assayed by using rabbits. Japanese native white male rabbits having a body weight of 2.5 to 3.5 kg were used. Blood was taken from the ear vein of the animals maintaining the 3.8% trisodium citrate/blood ratio at 1:9. The blood was centrifuged at 1,000 rpm for 10 minutes, and the upper layer was separated as PRP (platelet-rich plasma). The lower layer was further centrifuged at 2,800 rpm for 10 minutes. It separated into two layers. The upper layer was separated as PPP (platelet-poor plasma). The number of platelets was adjusted to 6×10^5 /microliter by dilution with PPP. Each of the test compounds was added in an amount of 25 microliters to 250 microliters of PRP after adjustment, and the mixture was subjected to preincubation at 37° C. for 2 minutes. Then ADP was added so that its final concentration was 10 μM, and variations in transmittance were recorded by using an agrigometer. The test compound was used after it was dissolved in ethanol to a concentration of 10 mg/ml and then serially diluted with phosphate buffer (pH 7.4). The percent inhibition of aggregation was calculated in accordance with the following equation. [formula] where
To is the transmittance of the system to which the test compound was not added, and
T is the transmittance of the system to which the test compound was added.
The minimum concentration of the compound at which the percent inhibition exceeds 50% is shown as IC50.

For assay [1], the system named is liver cell necrosis induced by carbon tetrachloride. In words: Effect (in vivo) on liver cell necrosis induced by carbon tetrachloride; inhibition of plasma GPT activity increase. The conditions noted are these: five administrations, 24 hours after CCl4 s.c., rat. Further details: species or system SD-strain male rats. How it is done:
Effect (in vivo) on liver cell necrosis induced by carbon tetrachloride
Carbon tetrachloride and each of the test compounds were administered to SD-strain male rats (6 weeks old, body weight 170 to 200 g) by the following procedure. Blood was taken from the animals, and glutamic acid-pyruvic acid transferase (GPT) activity as an index of liver injury was measured by the ultraviolet absorbance measuring method (rate-optimum standard method), and the effect of the test compound was evaluated.
The rats were used in groups each consisting of 8 to 36 rats. The test compound was used as an aqueous 0.5% Tween 80-2.5% ethanol solution. […] The test compound was administered five times in total, i.e. 30 minutes before administration of carbon tetrachloride and 1, 2, 8 and 18 hours after administration of carbon tetrachloride. The carbon tetrachloride was subcutaneously administered as a 50% olive oil solution at a rate of […] of body weight (6670 mg/kg body weight as carbon tetrachloride). Before administration of carbon tetrachloride, the animals had been caused to abstain from food for about 18 hours.
Twenty-four hours after the administration of carbon tetrachloride, the rats were anesthetized with ether. Blood was drawn from the abdominal artery of the animals, and left to stand at room temperature for 1 hour and then centrifuged at 3,000 rpm for 15 minutes. The supernatant was used as a serum sample, and the GPT activity was measured.
The percent inhibition of the test compound on the increase of the plasma GPT activity increase by CCl4 was calculated in accordance with the following equation. [formula]

Each structure is given as a SMILES string. Values after ≈ are worked out from the molar mass of the structure shown.

Consider `CCCCC(C)(O)C/C=C/[C@@H]1[C@H]2CC(CCCCC(=O)O)=C[C@H]2C[C@H]1O` (stereo partly shown) [15-Deoxy-16-hydroxy-16-methylisocarbacyclin], for which the IC50 (commonly the midpoint of a concentration-inhibition curve) in the assay on Platelet aggregation was 0.37 µg/mL (≈ 1.02 µM).
Regarding `CCCC[C@H](C)C[C@H](O)/C=C/[C@@H]1[C@H]2CC(CCCCC(=O)N[C@@H](CC(C)C)C(=O)O)=C[C@H]2C[C@H]1O` [17(S),20-Dimethylisocarbacyclin L-leucine amide], the “Percent inhibition of the plasma GPT activity” value in assay [1] (0.3 mg/kg p.o.) was 33%. The IC50 in the assay on Platelet aggregation is above 1000 µg/mL.
On to `CCCC[C@H](C)C[C@H](O)/C=C/[C@@H]1[C@H]2CC(CCCCC(=O)OCC(=O)O)=C[C@H]2C[C@H]1O` [17(S),20-dimethylisocarbacyclin carboxymethyl ester], for which the “Percent inhibition of the plasma GPT activity” value is listed as 44% in assay [1] (1.0 mg/kg p.o.) and 39% in assay [1] (3.0 mg/kg p.o.). Moreover, in the assay on Platelet aggregation, the half-inhibitory concentration (IC50) is 407 µg/mL (≈ 932 µM).
For the compound `CCCCC[C@H](O)/C=C/[C@@H]1[C@H]2C/C(=C/CCCC(=O)O)O[C@H]2C[C@H]1O` [Prostaglandin I2, reference compound], in the assay with Platelet aggregation, the IC50 amounted to 0.004 µg/mL (≈ 0.0113 µM).

(Values after US5175338A, “Isocarbacyclin derivatives and their pharmaceutically acceptable salts thereof” (Teijin Limited, priority 1986, dated 1992).)
